In brackets after ≈: the same amount, converted by molar mass. Like-named read-outs stand apart in the source and are kept apart here.
How the values were obtained:
S. aureus = test: antibiotic activity (MIC); format: cell-based; conditions: Staphylococcus aureus
E. Coli = test: antibiotic activity (MIC); format: cell-based; conditions: Escherichia coli, read-out: MIC, E. Coli
P. aerug = test: antibiotic activity (MIC); format: cell-based
[1] = test system: chick embryo vitelline capillaries; test: chick embryo vitelline capillary regression assay; format: in vivo; set-up: key to vitelline capillary regression: +: Vascular reactivity; 0: No vascular reactivity; +/-: Equivocal reactivity
Experimental: Using the chick embryo vitelline capillaries assay, compounds were tested for their ability to induce capillary regression. Each compound was applied in 0.1 ml of 15% Ficol 400 and PBS onto the embryo, and vascular regression was assessed after 60 minutes.
The 3-day chick embryo consists of an embryonic disc from which numerous vessels emerge and return, forming a "figure 8"-shaped structure--the embryo in the center with vascular loops extending outward over both poles. […] Following a lag period of around 15 minutes, the constriction of continuity between capillary and secondary vessels, generally on the "venous" side, was observed. Continued pulsatile blood flow progressed, resulting in a "swelling" of the blind tube, followed by a pinching off of the remaining connection and formation of an enclosed vascular sac resembling a "blood island." This process progressed until only the largest vessels remained intact.

[2] = test system: PHA-stimulated human lymphocytes; test: inhibition of mitogen (PHA)-stimulated growth of human T-cells; format: cell-based; conditions: Homo sapiens, Lymphocyte, read-out: inhibition of PHA-stimulated human lymphocytes (% control)
Source text: Results are tabulated below.

[3] = format: physicochemical
Source text: Compound 1361 was isolated from shark liver preparations in two different ways: first, as a degradation product of compound 1360; and, subsequently,as a minor aminosterol component fractionating with slightly faster retention time than squalamine during preparative C18 RP-HPLC (component of Fraction VI). In early attempts to purify each aminosterol to homogeneity, pooled fractions from C18 RP-HPLC were subjected to silica gel flash chromatography with CH2 Cl2 :CH30 H:NH4 OH 6:3:1, and the aminosterols were assayed on TLC plates. The pools of free base steroids were then re-subjected to C18 RP-HPLC, using an analytical column.

[4] = test system: stage 59-60 Xenopus tadpoles; conditions: 10 μg/ml in water
HM = HM MTT assay; format: cell-based; conditions: Table II; read-out: Minimum Effective Concentration, HM MTT assay

Work on `CC(C)CCC[C@@H](C)[C@H]1CC[C@H]2[C@@H]3CC[C@H]4C[C@H](NCCCN5CCCCN=C5N)CC[C@]4(C)[C@H]3CC[C@]12C` yielded an MIC (S. aureus) of 2 µg/mL (≈ 3.7 µM).
In the case of `COC(=O)CCC(C)[C@H]1CCC2C3C[C@@H](O)[C@H]4C[C@H](NCCN)CC[C@]4(C)C3CC[C@@]21C` (stereo partly drawn), the MIC (E. Coli) is reported as 32 to 44 µg/mL (≈ 71.3 to 98.1 µM) and the MIC (P. aerug) is reported as 128 µg/mL (≈ 285 µM).
In the case of `CC(COS(=O)(=O)O)C(=O)CC[C@@H](C)[C@H]1CC[C@H]2[C@@H]3[C@H](O)C[C@H]4C[C@@H](NCCCNCCCCN)CC[C@]4(C)[C@H]3CC[C@]12C` (single isomer, unassigned) [Compound 1360], the vitelline capillary regression ([1]; 1 μg applied, 60 minutes) is reported as 0, the “effect on blood color in chick embryo” value ([1]; within 20 minutes) is reported as “the blood circulating through the embryonic vessels exhibited a brighter red color” and the inhibition at 1 µg/mL ([2]; 1 μg/ml) is reported as 5%. The inhibition at 5 µg/mL ([2]; 5 μg/ml) was 5%, the inhibition at 10 µg/mL ([2]; 10 μg/ml) was 5% and the chemical stability [3] was “undergoes a dehydration of the 27 hydroxyl, loss of sulfate, and generation of the corresponding 27-ene”. For the same compound, the “pharmacological response in tadpole” value [4] was “Swelling and lysis of certain erythrocytes occurred, resulting in accumulation of nuclei within certain small vessels of the tail. Subsequent tissue breakdown occurred in areas of tail surrounding these nuclear plugs” and the “pharmacological response in tadpole” value ([4]; listed as compound 1360) was “extensive vasocclusion occurred within 60 minutes throughout the tail”.
Work on `COC(=O)CCC(C)[C@H]1CCC2C3CC[C@H]4C[C@H](NCCCNCCCCNCCCN)CC[C@]4(C)C3CC[C@@]21C` (stereo partly drawn) [drawing 108] yielded a minimal effective concentration (HM) of 6.8 µg/mL.
